Source: patent US20100221821A1, “METHODS AND COMPOSITIONS RELATED TO RIBOSWITCHES THAT CONTROL ALTERNATIVE SPLICING AND RNA PROCESSING” (YALE UNIVERSITY, priority 2007, published 2010)
Read-outs that look alike come from different tables or passages of the source.

What was measured:
[1] = test system: altered TPP aptamer in THIC-III RNA from A. thaliana; assay: In-line probing of TPP binding by the spliced (altered) TPP aptamer of THIC type III RNA; parameters: species or system Arabidopsis thaliana
Excerpt: (B) In-line probing analysis of TPP binding by the spliced aptamer depicted in (A). Lanes include RNAs loaded after no reaction (NR), after partial digestion with RNase T1 (T1), or after partial digestion with alkali (^−OH). Sites 1 and 2 were quantified to establish the KD as shown in (C). (C) Plot indicating the normalized fraction of RNA spontaneously cleaved versus the concentration of TPP for sites 1 and 2 in (B).
In-line probing (Soukup and Breaker, 1999) was used to determine whether this altered aptamer retains TPP binding activity.
In-line probing assays were conducted essentially as described previously (Sudarsan et al., 2003; Winkler et al., 2002). […] For in-line probing analysis, the labeled RNA was incubated at room temperature for 40 hours in 50 mM Tris-HCl (pH 8.3 at 23° C.), 20 mM MgCl2, and 100 mM KCl in the absence or presence of varying concentrations of TPP. Cleavage products were resolved by denaturing 10% PAGE, visualized by PhosphorImager (GE Healthcare), and quantitated using ImageQuant software. The apparent KD value, reflecting the concentration of TPP needed to half-maximally modulate RNA structure, was determined by plotting the normalized fraction of RNA cleaved versus the logarithm of TPP concentration.

[2] = test system: TPP aptamer with 5' splice site region of THIC mRNA from A. thaliana; assay: In-line probing of TPP aptamer with 5' flank (nts -14-261 relative to 5' splice site); format: binding, Arabidopsis thaliana; conditions: 10 μM TPP
Method: (A) TPP causes changes in RNA structure near to the 5′ splice site, which is important for the formation of THIC type III RNA. For in-line probing, a 5′ ^32P-labelled RNA starting 14 nts upstream of the 5′ splice site (+1) and expanding to the 3′ end of the TPP aptamer (nucleotides-14-261) from A. thaliana was incubated in the absence (−) or presence (+) of 10 μM TPP and the resulting spontaneous cleavage products were separated by polyacrylamide gel electrophoresis. Markers are RNAs partially digested with RNase T1 (T1) or alkali (^−OH). The graph depicts the relative band intensities in the lanes indicated. (B) Base-pairing potential between the 5′ splice site region and the P4-P5 stems of the TPP aptamer (SEQ ID NOs:34-47; complementary nucleotides are shaded). Stretches of complementary nucleotides are also present in all other plant THIC mRNA sequences available. […]
In-line probing assays were conducted essentially as described previously (Sudarsan et al., 2003; Winkler et al., 2002). […] Cleavage products were resolved by denaturing 10% PAGE, visualized by PhosphorImager (GE Healthcare), and quantitated using ImageQuant software. The apparent KD value, reflecting the concentration of TPP needed to half-maximally modulate RNA structure, was determined by plotting the normalized fraction of RNA cleaved versus the logarithm of TPP concentration.

[3] = target: full-length TPP aptamer from A. thaliana; conditions: read-out: apparent dissociation constant (KD) of full-length aptamer for TPP; cited from earlier work
THIC transcripts [4] = test system: THIC transcripts
Method: (§1) (A) qRT-PCR analysis was conducted on THIC transcripts from A. thaliana seedlings grown for 14 days on medium supplemented with 0, 0.1, and 1 mM thiamin. Total THIC transcripts and separately types I, II and III RNAs were detected using different primer combinations. cDNAs were generated using a polyT primer or random hexamers for detection of type I RNAs. Expression was normalized for each primer combination to the value measured using medium with no thiamin supplementation (open bars). Values are averages from three independent experiments and error bars represent standard deviation. (B) Northern blot analysis of THIC transcripts from the same samples described in (A). 20 μg total RNA was loaded per lane and analyzed using probes binding to the coding region of THIC, the extended 3′ UTR of types I and III RNAs, or the control transcript EIF4A1. […] (C) qRT-PCR analysis of the time-dependent effects of thiamin treatment on THIC transcripts from A. thaliana. Seedlings were grown for 14 days on thiamin free medium and subsequently sprayed with 50 μM thiamin and 0.25 mg ml^−1 Tween 80. Control seedlings were treated with a solution containing only Tween 80. Samples were collected after 4 h and 26 h and subjected to qRT-PCR analysis. Amounts of THIC transcripts were analyzed from cDNAs generated with polyT primer and normalized to the values of the control samples without application of thiamin (open bars). Values are averages from three independent experiments and error bars represent standard deviation. (D) Relative changes of the levels of THIC transcript types in wild-type (WT) and thiamin pyrophosphokinase double knockout (TPK-KO) A. thaliana plants. Seedlings were grown for 12 days on thiamin free medium and amounts of THIC transcript types were analyzed by qRT-PCR. Data were normalized to the values for the WT samples and reflect averages from three replicates, with error bars representing standard deviation.
(A) qRT-PCR analysis of total THIC transcripts from plants incubated for 48 h under continuous light. Plants were grown for 11 days in light/dark cycles (16/8 h) on medium without thiamin or medium supplemented with 100 μM thiamin. On the morning of the 12th day, plants were transferred to continuous light and samples were taken every 3 hours. Expression was normalized to the value of the sample at time point 0 from plants grown on thiamin free medium. Error bars represent standard deviation of triplicate qRT-PCR analyses. […] (B) qRT-PCR analysis of THIC type III RNAs. Plant material and data normalization are as described for (A).
The amount of THIC transcripts was established by using quantitative RT-PCR (qRT-PCR) to address whether transcript levels respond to increased thiamin concentrations. A. thaliana seedlings were supplemented with various amounts of thiamin and the different THIC transcript types were detected using specific primer combinations. The primer combination amplifying THIC-II also can bind to a subset of THIC-I RNAs that have undergone splicing of the first 3′ UTR intron.
Arabidopsis thaliana ecotype Columbia-0 plants were grown with soil at 23° C. in a growth chamber under 16/8 h (light/dark) photoperiod with 60% humidity unless otherwise stated. For seedling experiments, plants were grown on basal MS medium (Murashige and Skoog, 1962) supplemented with 2% sucrose and varying concentrations of thiamin and under continuous light unless otherwise specified. N. benthamiana plants for leaf infiltration assays were grown on soil for 3 to 5 weeks under continuous light.

THIC transcripts [5] = conditions: seedlings on thiamin-supplemented medium
Method: as §1

[6] = test system: THIC TPP riboswitch (3' region of AtTHIC fused to EGFP)
Method: (A) Leaves from stably transformed A. thaliana lines expressing a reporter fusion of the complete 3′ region of AtTHIC fused to the 3′ end of EGFP were abscised and incubated with the petioles in water or in water supplemented with 0.02% thiamin. EGFP fluorescence was assessed at 0 h, 48 h, and 72 h after onset of treatment. One representative set of data from three repeats is shown, and the numbers identify different leaves from one transgenic line. (B) Quantitation of EGFP fluorescence of leaves depicted in (A) at three time points. The data represent average fluorescence intensity and standard deviation for each leaf. The plot also depicts average background fluorescence of WT leaves. (C) qRT-PCR analysis of total EGFP and THIC transcripts from leaves incubated for 72 h in water or 0.02% thiamin. Transcript amounts were standardized to an internal reference transcript and normalized to transcript abundance in water treated samples. Values are averages from four independent experiments using different transgenic lines and error bars represent standard deviation. (D,E) RT-PCR analysis of different 3′ UTRs of EGFP and THIC transcript types from A. thaliana reporter transformants grown in the absence of exogenous thiamin. For cDNA generation, a polyT primer, random hexamers or two different gene specific primers (binding either 221 or 882 nts downstream of the end of the aptamer) were used as indicated. The forward primers were specific for the end of the last exon of the coding region of EGFP (left) or THIC (right), whereas the reverse primer was either a polyT primer (D) or homologous to a region 221 nts downstream of the end of the aptamer (E). RT-PCR products were separated and visualized as described in the description of FIG. 2. M designates the marker lanes containing DNAs of 100 base-pair increments. No RT indicates a control reaction using the RNA without reverse transcription as a template source. I-1 and I-2 represent type I RNAs with the upstream intron following the stop codon unspliced or spliced, respectively.
(A) Secondary structure model and sequence of the WT TPP aptamer from A. thaliana genomic sequence and located in the 3′ region of THIC that was fused to EGFP (SEQ ID NOs: 32 and 33). […] (B) Quantitation of EGFP fluorescence in leaves from A. thaliana transformants expressing reporter constructs containing the WT aptamer sequence or mutated versions M2, M3 and M4. Leaves were excised and incubated with their petioles in water or 0.02% thiamin for 72 h before fluorescence analysis. Values are averages from at least three independent experiments using different transgenic lines. Error bars represent standard deviation. (C) qRT-PCR analyses of EGFP and THIC transcript amounts in A. thaliana transformants described in (B). Transcript amounts (standardized using a reference transcript) were normalized to transcript abundance in water treated samples. Values are averages from two to four independent experiments using different transgenic lines. Error bars represent standard deviation. (D,E) RT-PCR analyses of 3′ UTRs of EGFP and THIC transcripts from A. thaliana transformants with mutations M2 or M3. RT-PCR analyses were performed as described in the description of FIGS. 5D and 5E. Forward primers were homologous to the end of the last exon of the coding region of EGFP or THIC, and the reverse primer was a polyT primer (D) or complementary to a region 221 nts downstream of the end of the aptamer (E). Kbp designates kilobase pairs.

[7] = test system: THIC promoter from A. thaliana; conditions: 100 μM thiamin, 9 day old seedlings
Excerpt: A construct consisting of a 1595 by fragment of the THIC promoter from A. thaliana was fused to the reporter gene β-glucuronidase (GUS) and transformed into A. thaliana. […] Data are mean values from three different transgenic lines and from three independent experiments. Error bars represent standard deviation.

[8] = 26 h after spraying with 50 μM thiamin
[9] = four hours after spraying seedlings with 50 μM thiamin

## Cc1ncc(C[n+]2csc(CCO[P@](=O)(O)OP(=O)(O)O)c2C)c(N)n1 [TPP, thiamine pyrophosphate]
[1]; altered aptamer vs full-length aptamer
  loss in ligand-binding affinity versus full-length aptamer: more than three orders of magnitude
[1]; in-line probing, spliced aptamer of THIC-III, read-out: apparent KD of the altered aptamer for TPP
  Kd: ~60 µM
[1]; mutation M1 in type III construct
  TPP binding by mutant M1 of the altered aptamer: completely abolish TPP binding
[1]; mutation M2 in type III construct
  TPP binding by mutant M2 of the altered aptamer: completely abolish TPP binding
[2]
  structural modulation of nucleotides near the 5' splice site: increase in structural flexibility
[3]
  Kd: ~0.05 µM

## Cc1ncc(C[n+]2csc(CCO)c2C)c(N)n1 [thiamin]
[1]; data not shown
  binding to the altered aptamer: does not bind
THIC transcripts [4]; [8]
  THIC-II level: decreased even further
  total THIC RNA level: decreased even further
THIC transcripts [4]; after spraying with 50 μM thiamin, early phase (4 h)
  increase in THIC-III: more pronounced in the early phase
THIC transcripts [4]; [9]
  THIC-II amount relative to absence of added thiamin: 50%
  total THIC RNA amount relative to absence of added thiamin: 50%
THIC transcripts [4]; medium containing 1 mM thiamin
  THIC-I transcripts copy number: little or no change
  THIC-II transcripts: equivalent reduction
  THIC-III transcripts copy number: little or no change
THIC transcripts [4]; medium supplemented with 100 μM thiamin, continuous light 48 h
  circadian rhythm of THIC expression: not affected
THIC transcripts [4]; seedlings grown on medium containing 1 mM thiamin, 14 days
  total amount of THIC transcripts relative to seedlings grown without thiamin supplementation: approximately 20%
THIC transcripts [5]
  THIC-I RNA levels (Northern blot): remain relatively unchanged
  THIC-III RNA levels (Northern blot): remain relatively unchanged
THIC transcripts [5]; same samples as FIG. 3A
  THIC-II levels (Northern blot): decrease
[6]; 0.02% thiamin, 72 h, qRT-PCR
  amount of endogenous THIC transcripts relative to control levels: approximately 20%
[6]; WT construct, 0.02% thiamin, 72 h, qRT-PCR
  amount of EGFP transcripts relative to control levels: approximately 20%
[6]; WT construct, 0.02% thiamin, rosette stage leaves
  EGFP fluorescence in leaves: decreased
[6]; mutant aptamer M2, 0.02% thiamin 72 h
  responsiveness of reporter to thiamin application compared to WT construct: reduced
[6]; mutant aptamer M3, 0.02% thiamin 72 h
  responsiveness of reporter to thiamin application compared to WT construct: complete loss
[6]; mutant aptamer M4, 0.02% thiamin 72 h
  responsiveness of reporter to thiamin application compared to WT construct: complete loss
[7]
  expression of reporter gene (GUS) driven by the THIC promoter: not altered
